What was measured:
[1] = target: T1, Full length DGKζ (in-house protein M1-V929) (Homo sapiens, UniProt Q13574); assay: Biochemical DGK IC50 assay (ADP-Glo, lipid micelle substrate), DGKζ; settings: 0.5 nM enzyme, 140 μM ATP, 80 μM DAG, 1 hour preincubation, 1 hour reaction, room temperature, read-out: IC50s for DGKζ
T1 construct: His (N); TEV cleavage site (N); made in house; host or cells: Sf9 insect cells (baculovirus, Bac-to-Bac)
In short: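 In-house full-length human DGKζ, baculovirus-expressed in Sf9 cells, was assayed with a DAG/PS lipid micelle substrate at room temperature. Buffer was 50 mM HEPES, 10 mM MgCl2, 0.01% BSA, 0.1 mM Na3VO4, 0.005% Tween-20, 0.01 mM CaCl2, with final compound 1.55˜10000 nM or 23.3˜150000 nM.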

[2] = target: T2, Full length DGKα (D21-10BG, SignalChem) (Homo sapiens, UniProt P23743); assay: Biochemical DGK IC50 assay (ADP-Glo, lipid micelle substrate), DGKα; settings: 7.5 nM enzyme, 140 μM ATP, 80 μM DAG, 1 hour preincubation, 1 hour reaction, room temperature, read-out: IC50s for DGKα
T2 construct: Full length DGKα (D21-10BG, SignalChem); purchased SignalChem D21-10BG
T2 sequence (P23743 whole entry): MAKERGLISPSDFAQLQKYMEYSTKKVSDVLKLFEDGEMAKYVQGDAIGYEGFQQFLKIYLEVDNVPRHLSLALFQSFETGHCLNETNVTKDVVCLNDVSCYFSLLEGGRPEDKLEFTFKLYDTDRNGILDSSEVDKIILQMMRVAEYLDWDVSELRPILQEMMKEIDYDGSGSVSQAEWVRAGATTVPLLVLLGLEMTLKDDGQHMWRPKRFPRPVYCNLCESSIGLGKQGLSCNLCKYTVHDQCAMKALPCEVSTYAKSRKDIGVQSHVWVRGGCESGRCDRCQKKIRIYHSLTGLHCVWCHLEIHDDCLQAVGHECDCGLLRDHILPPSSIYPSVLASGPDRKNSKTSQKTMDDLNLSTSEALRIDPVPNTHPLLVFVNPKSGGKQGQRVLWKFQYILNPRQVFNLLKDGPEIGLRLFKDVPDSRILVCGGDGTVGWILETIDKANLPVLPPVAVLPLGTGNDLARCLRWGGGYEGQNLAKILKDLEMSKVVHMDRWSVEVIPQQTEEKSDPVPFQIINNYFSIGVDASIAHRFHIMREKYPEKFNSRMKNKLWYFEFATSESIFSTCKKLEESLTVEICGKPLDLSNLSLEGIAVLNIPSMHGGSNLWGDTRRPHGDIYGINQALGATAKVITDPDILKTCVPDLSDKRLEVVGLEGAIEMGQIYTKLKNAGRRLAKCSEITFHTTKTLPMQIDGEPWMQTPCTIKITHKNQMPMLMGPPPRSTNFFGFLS
In short: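 Full-length enzyme was assayed by ADP-Glo on DAG/PS lipid micelles at room temperature in HEPES/MgCl2/CaCl2 buffer with BSA, Na3VO4 and Tween-20, using a 1 h reaction and luminescence read-out.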

T1 sequence (Q13574 1-929 isoform Q13574-4): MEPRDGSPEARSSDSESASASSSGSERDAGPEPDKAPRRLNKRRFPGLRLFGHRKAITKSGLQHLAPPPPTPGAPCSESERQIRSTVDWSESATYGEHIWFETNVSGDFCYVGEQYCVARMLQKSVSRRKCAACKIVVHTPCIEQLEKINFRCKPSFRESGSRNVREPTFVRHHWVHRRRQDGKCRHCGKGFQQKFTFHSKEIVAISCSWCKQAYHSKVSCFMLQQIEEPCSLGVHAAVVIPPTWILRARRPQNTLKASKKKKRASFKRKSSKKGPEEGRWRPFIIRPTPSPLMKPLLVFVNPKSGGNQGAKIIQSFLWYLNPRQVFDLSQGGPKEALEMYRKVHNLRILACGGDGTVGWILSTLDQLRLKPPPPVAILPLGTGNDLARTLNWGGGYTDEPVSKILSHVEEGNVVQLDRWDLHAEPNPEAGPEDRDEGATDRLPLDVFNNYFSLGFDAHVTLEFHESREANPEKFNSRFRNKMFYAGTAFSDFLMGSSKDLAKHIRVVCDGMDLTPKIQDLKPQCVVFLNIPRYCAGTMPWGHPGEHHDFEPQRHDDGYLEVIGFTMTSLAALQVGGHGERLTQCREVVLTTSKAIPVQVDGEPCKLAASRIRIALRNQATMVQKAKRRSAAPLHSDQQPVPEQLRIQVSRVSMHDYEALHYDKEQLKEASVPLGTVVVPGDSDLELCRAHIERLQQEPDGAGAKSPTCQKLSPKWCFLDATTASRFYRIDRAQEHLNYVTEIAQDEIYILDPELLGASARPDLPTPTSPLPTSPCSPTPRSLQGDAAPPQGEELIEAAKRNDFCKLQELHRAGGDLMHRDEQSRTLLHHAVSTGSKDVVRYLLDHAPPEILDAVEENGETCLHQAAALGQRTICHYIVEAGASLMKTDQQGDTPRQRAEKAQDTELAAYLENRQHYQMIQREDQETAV

IC50 [1] | IC50 [2] | Compound
118 nM | 60 nM | CC[C@H]1CN(C(C)c2ccc3nc(C)sc3n2)[C@H](CC)CN1c1c(C#N)c(=O)n(C)n2cc(CC#N)nc12 (single isomer, unassigned) [Compound A112b]
118 nM | 185 nM | CC[C@@H]1CN(c2c(C#N)c(=O)n(C)n3cc(CC#N)nc23)[C@@H](C)CN1C(C)c1ccc2nc(C)sc2n1 (single isomer, unassigned) [Compound A113a]
2910 nM | 651 nM | CC[C@@H]1CN(c2c(C#N)c(=O)n(C)n3cc(CC#N)nc23)[C@@H](C)CN1C(C)c1ccc2nc(C)sc2n1 (single isomer, unassigned) [Compound A113b]
> 10000 nM | 288 nM | CC#CCc1cn2c(n1)c(N1C[C@@H](CC)N(C(C)c3ccc4nc(C)sc4n3)C[C@@H]1CC)cc(=O)n2C (single isomer, unassigned) [Compound A115a]
49 nM | 2.7 nM | CC#CCc1cn2c(n1)c(N1C[C@@H](CC)N(C(C)c3ccc4nc(C)sc4n3)C[C@@H]1CC)cc(=O)n2C (single isomer, unassigned) [Compound A115b]
132 nM | 118 nM | CC#CCc1cn2c(n1)c(N1C[C@@H](CC)N(C(C)c3ccc4nc(C)sc4c3F)C[C@@H]1CC)cc(=O)n2C (single isomer, unassigned) [Compound A116a]
> 10000 nM | 708 nM | CC#CCc1cn2c(n1)c(N1C[C@@H](CC)N(C(C)c3ccc4nc(C)sc4c3F)C[C@@H]1CC)cc(=O)n2C (single isomer, unassigned) [Compound A116b]
48 nM | 22 nM | CC#CCc1cn2c(n1)c(N1C[C@@H](CC)N(C(C)c3ccc4ncsc4c3F)C[C@@H]1CC)cc(=O)n2C (single isomer, unassigned) [Compound A117a]
2000 nM | 535 nM | CC#CCc1cn2c(n1)c(N1C[C@@H](CC)N(C(C)c3ccc4ncsc4c3F)C[C@@H]1CC)cc(=O)n2C (single isomer, unassigned) [Compound A117b]
1460 nM | 2050 nM | CC[C@H]1CN(C(C)c2ccc3nc(C)sc3c2F)[C@H](C)CN1c1cc(=O)n(C)n2cc(CC#N)nc12 (single isomer, unassigned) [Compound A119a]
51 nM | 340 nM | CC[C@H]1CN(C(C)c2ccc3nc(C)sc3c2F)[C@H](C)CN1c1cc(=O)n(C)n2cc(CC#N)nc12 (single isomer, unassigned) [Compound A119b]
143 nM | 50 nM | CC[C@H]1CN(C(C)c2ccc3nc(C)sc3n2)[C@H](C)CN1c1cc(=O)n(C)n2cc(CC#N)nc12 (single isomer, unassigned) [Compound A121b]
4890 nM | 269 nM | CC[C@H]1CN(C(C)c2ccc3nc(C)sc3c2)[C@H](CC)CN1c1cc(=O)n(C)n2cc(C=NOC)nc12 (single isomer, unassigned) [Compound A123a]
2390 nM | 131 nM | CC[C@H]1CN(C(C)c2ccc3nc(C)sc3c2)[C@H](CC)CN1c1cc(=O)n(C)n2cc(C=NOC)nc12 (single isomer, unassigned) [Compound A123bc]
> 10000 nM | 749 nM | CC[C@H]1CN(C(C)c2ccc3nc(C)sc3c2)[C@H](CC)CN1c1cc(=O)n(C)n2cc(C=NOC)nc12 (single isomer, unassigned) [Compound A123d]
> 10000 nM | 2000 nM | CC[C@H]1CN(C(C)c2ccc3nc(C)sc3n2)[C@H](CC)CN1c1cc(=O)n(C)n2cc(C=NOC)nc12 (single isomer, unassigned) [Compound A124a]
8100 nM | 78 nM | CC[C@H]1CN(C(C)c2ccc3nc(C)sc3n2)[C@H](CC)CN1c1cc(=O)n(C)n2cc(C=NOC)nc12 (single isomer, unassigned) [Compound A124bc]
630 nM | 5.9 nM | CC[C@H]1CN(C(C)c2ccc3nc(C)sc3n2)[C@H](CC)CN1c1cc(=O)n(C)n2cc(C=NOC)nc12 (single isomer, unassigned) [Compound A124d]

The remaining lines, values behind:

Compound | IC50 [1] | IC50 [2]
CC[C@H]1CN(C(CCOC)c2ccc3nc(C)sc3c2)[C@H](CC)CN1c1cc(=O)n(C)n2cc(CC#N)nc12 (single isomer, unassigned) [Compound A102a] | 46 nM | 378 nM
CC[C@H]1CN(C(CCOC)c2ccc3nc(C)sc3c2)[C@H](CC)CN1c1cc(=O)n(C)n2cc(CC#N)nc12 (single isomer, unassigned) [Compound A102b] | 623 nM | 735 nM
CC[C@H]1CN(C(C)c2ccc3cc(F)sc3n2)[C@H](CC)CN1c1cc(=O)n(C)n2cc(CC#N)nc12 (single isomer, unassigned) [Compound A105a] | 706 nM | 195 nM
CC[C@H]1CN(C(C)c2ccc3cc(F)sc3n2)[C@H](CC)CN1c1cc(=O)n(C)n2cc(CC#N)nc12 (single isomer, unassigned) [Compound A105b] | 48 nM | 3.3 nM
CC[C@@H]1CN(c2cc(=O)n(C)n3cc(CC#N)nc23)[C@@H](COC)CN1C(C)c1ccc2nc(C)sc2n1 (single isomer, unassigned) [Compound A108a] | > 10000 nM | 6400 nM
CC[C@@H]1CN(c2cc(=O)n(C)n3cc(CC#N)nc23)[C@@H](COC)CN1C(C)c1ccc2nc(C)sc2n1 (single isomer, unassigned) [Compound A108b] | 182 nM | 510 nM
CC[C@H]1CN(C(C)c2ccc3nc(C4CC4)sc3n2)[C@H](CC)CN1c1cc(=O)n(C)n2cc(CC#N)nc12 (single isomer, unassigned) [Compound A109a] | 1800 nM | 1490 nM
CC[C@H]1CN(C(C)c2ccc3nc(C4CC4)sc3n2)[C@H](CC)CN1c1cc(=O)n(C)n2cc(CC#N)nc12 (single isomer, unassigned) [Compound A109b] | 28 nM | 113 nM
CC[C@H]1CN(C(C)c2ccc3nc(CC4CC4)sc3n2)[C@H](CC)CN1c1cc(=O)n(C)n2cc(CC#N)nc12 (single isomer, unassigned) [Compound A110a] | 1170 nM | 1070 nM
CC[C@H]1CN(C(C)c2ccc3nc(CC4CC4)sc3n2)[C@H](CC)CN1c1cc(=O)n(C)n2cc(CC#N)nc12 (single isomer, unassigned) [Compound A110b] | 15 nM | 61 nM
CC[C@H]1CN(C(C)c2ccc3nc(C)sc3n2)[C@H](CC)CN1c1c(C#N)c(=O)n(C)n2cc(CC#N)nc12 (single isomer, unassigned) [Compound A112a] | 3500 nM | 752 nM
CC(c1ccc2nccnc2c1)N1C[C@H](C)N(c2cc(=O)n(C)n3cc(CO)nc23)C[C@H]1C (stereo partly drawn) [Compound A3, 8-((2S,5R)-2,5-dimethyl-4-(1-(quinoxalin-6-yl)ethyl)piperazin-1-yl)-2-(hydroxymethyl)-5-methylimidazo[1,2-b]pyridazin-6(5H)-one] | 9000 nM | 2300 nM
COCc1cn2c(n1)c(N1C[C@@H](C)N(C(C)c3ccc4nccnc4c3)C[C@@H]1C)cc(=O)n2C (stereo partly drawn) [Compound A4, 8-((2S,5R)-2,5-dimethyl-4-(1-(quinoxalin-6-yl)ethyl)piperazin-1-yl)-2-(methoxymethyl)-5-methylimidazo[1,2-b]pyridazin-6(5H)-one] | 480 nM | 4000 nM
